These results are taken from patent US12403121B2, “Anticancer rocaglamide derivatives” (priority 2018, dated 2025).

The subject of data set [1] is panel of MPNST, schwannoma, and meningioma cell lines. The data set is described as follows: Side-by-side growth inhibition comparison with silvestrol in a cell line panel. The note with it: panel of MPNST, schwannoma, meningioma cell lines. It counts as cell-based. As for the experimental part: Actively-growing cells were seeded in 96-well plates (Sarstedt) at 2,000 cells/well for Ben-Men-1 and RD cells, 30,000 cells/well for 697 and 697-R cells, and 4,000 cells/well for all other cell lines. The following day, cells were treated with various concentrations of each compound or and 0.05% of DMSO as the control for six days for MG-63 cells or three days for all remaining cell lines. Cell proliferation was assessed using resazurin assays and the IC50 value calculated. Cell cycle analysis was performed accordingly. Burns et al., Cancer Res., 73:792-803 (2013).
To search for compounds with better drug-like properties, the inventors conducted a side-by-side comparison of ten rocaglates lacking the dioxanyl ring with silvestrol for growth-inhibitory activity in a panel of MPNST, schwannoma, and meningioma cell lines, which they had previously shown to be sensitive to the antiproliferative action of silvestrol. […] The average IC50 value of each rocaglate was determined by 3-day resazurin proliferation assays. […] Further structure and activity comparison discerned some positions on the cyclopenta[b]benzofuran scaffold that affected the antiproliferative activity of rocaglates.

The subject of data set [2] is STS26T cells. The data set is described as follows: Western blots of treated MPNST cells. It counts as cell-based, human. The note with it: 1 or 2 IC50. The protocol:
FIGS. 2A and 2B provide images showing that DDR and Roc increase caspase and PARP cleavage and elevated the levels of γH2AX while decreasing the expression of AKT and ERKs in MPNST cells. (A) Protein lysates prepared from STS26T cells treated for 3 days with 1 or 2 IC50 of DDR or Roc were analyzed by Western blots for the expression of various apoptosis-related proteins and mitogenic kinases AKT and ERK1/2. GAPDH served as a loading control. (B) Western blot analysis was performed on lysates from STS26T cells treated for 1 and 2 days with 1 or 2 IC50 of DDR for the expression of the DNA-damage response biomarker phosphorylated H2A.X (γH2A.X). As a positive control, lysates from HMS-97 human malignant schwannoma cells irradiated with 4 Grays (Gy) of X-ray were used.
Subconfluent cells were treated with the indicated doses of Roc or DDR for 24-72 hours and then harvested in cell lysis buffer (Cell Signaling Technology) containing 1 mM phenylmethylsufonylfluoride and protease inhibitor cocktail (Sigma-Aldrich). The protein content in cleared lysates was quantitated using the microBCA assay (ThermoFisher). Equal amounts of protein were run in sodium dodecyl sulfate-polyacrylamide gels and electrotransferred onto Immobilon-FL PVDF membranes (Millipore). The antibodies used were directed against: MDR1/ABCB1 (#13978), insulin-like growth factor-1 receptor β subunit (IGF-1Rβ; #9750), AKT (#9272), ERK1/2 (#4695), glyceraldehyde-3-phosphate dehydrogenase (GAPDH; #5174), caspase-3 (#9662), caspase-7 (#9492), cleaved caspase-7 (#9491), poly(ADP-ribose) polymerase (PARP; #9532), cleaved PARP (#5625), and phospho-histone H2A.X (pH2A.X[Ser′^39]; #9718; all from Cell Signaling Technology), NKX2.2 (sc-514161), LSD1 (sc-136174), and survivin (sc-17779; Santa Cruz Biotechnology), and FLI1 (ab15289) and cleaved caspase-3 (CC3; ab32042; Abeam). Protein bands were detected using IRDye® infrared fluorescent dye-labeled secondary antibodies and scanning on an Odyssey CLx imaging system (LI-COR Biosciences) using the appropriate fluorescent channel at a resolution of 84 μm.
To confirm induction of apoptosis in rocaglamide-treated MPNST cells, the inventors analyzed protein expression of several markers important for this process. […] A concomitant decrease in the amounts of intact caspases 3 and 7 and PARP was observed, consistent with the enhanced cleavage of these apoptotic markers and possibly due to direct effects of these rocaglamides on protein translation. Likewise, the levels of the pro-survival kinases AKT and ERK1/2 were diminished in rocaglamide-treated MPNST cells.
A general note: A western blot detects proteins with antibodies after separation by electrophoresis.

Data set [3] is described as follows: Maximum tolerated dose of Roc in mice. The format is in vivo. The note with it: every other day.
For data set [4] the following is noted: Kinghorn et al. 2016 and NCI Developmental Therapeutics Program study, same conditions; cited from earlier work.

On to `COc1ccc([C@@]23Oc4cc(OC)cc(OC)c4[C@]2(O)[C@H](O)[C@H](C(=O)N(C)C)[C@H]3c2ccccc2)cc1` [Roc, rocaglamide], for which the “IC50 values relative to silvestrol” value in data set [1] is “slightly higher than silvestrol”. The “levels of γH2AX” value in data set [2] (STS26T MPNST cells) is reported as “elevated”. In data set [2] (STS26T cells, 3 days), the “cleavage of caspases 3 and 7 and PARP” value is given as “increased cleavage”; the “expression of AKT and ERKs” value is “decreasing”. The “maximum tolerated dose (MTD)” value in data set [3] (IP) stood at 4 mg/kg. For the same compound, the “maximum tolerated dose (MTD)” value in data set [3] (oral gavage) came out at 1.2 mg/kg. Moreover, the “pulmonary toxicity in dogs” value in data set [4] was “did not induce the toxicity”.
